Laboratory results as given in patent US5441935A, “Growth factor receptors” (Imperial Cancer Research Technology Ltd., priority 1987, dated 1995).
Like-named read-outs stand apart in the source and are kept apart here. Non-standard residues stand in square brackets, D forms with d. Residues, ends and D or L forms follow the SMILES beside them. No end group written: not given here. Tyr(3-I) = N[C@@H](Cc1ccc(O)c(I)c1)C(=O)O

Experiments:
[1] = biological target: T1, Mr 75000-85000 protein (Mus musculus, UniProt P21729); experiment: ^125 I-GRP affinity labelling (EGS cross-linking) of the Mr 75000-85000 protein in Swiss 3T3 cells; type: binding
T1 construct: endogenous in cells; host or cells: Swiss 3T3 cells (intact, confluent and quiescent)
Protocol: After 2.5 h the cells were washed three times at 15° C. with phosphate buffered saline (PBS) and then incubated for 15 min at 15° C. in 1 ml of binding medium, pH 7.4 in the presence of the appropriate cross-linking agent at the concentration indicated. The cross-linking agents (EGS, DSS, DSP and BSCOES) were dissolved in dimethyl sulphoxide immediately prior to use and were added to medium to give a final concentration of dimethylsulphoxide of 1-2%. The cultures were rapidly rinsed twice with PBS at 4° C. and solubilized in 0.1 ml of 2× sample buffer 0.2M Tris-HCl, pH 6.8, 10% (w/v) glycerol, 6% sodium dodecyl sulphate (SDS) (w/v) 4% β-mercaptoethanol (v/v) and 2 mM ethylenediaminetetraacetic acid. Samples were immediately heated at 100° C. for 3- 5 min and analysed by either one or two-dimensional gel electrophoresis.
Slab gel electrophoresis was performed using 7.5% acrylamide in the separating gel and 5% in the stacking gel, and 0.1% SDS (31). After electrophoresis gels were stained, destained and dried down onto paper for autoradiography with Fuji X-ray film (Fuji Photo Film Co. Ltd. Japan). Dried gels were exposed to film for 4-8 days. Two-dimensional gel electrophoresis was performed as described by O'Farrell (32) using isoelectric focusing in the 1st dimension and SDS-polyacrylamide gel electrophoresis (SDS-PAGE) (8% polyacrylamide) in the second dimension. The samples prepared for isoelectric focusing containing 1.4% LKB ampholytes, pH 5-7, plus 0.6% LKD ampholytes, pH,3.5-10, 6M urea, and 2% Nonidet P-40. The Mr 75000-85000 band from autoradiograms was scanned using a Joyce-Loebl double beam densitometer and the areas under specific peaks were measured with a Hewlett-Packard digitizer.
FIG. 4. […] Values are expressed as percentage of the specific binding obtained in the absence of antagonists. […] Each point represents the mean of 3 determinations. […] Specific binding (B) is expressed in pmol/10^6 cells and is shown in a double-reciprocal plot. Each point represents the mean of duplicate determinations. […] After 2 hours, the cultures were washed twice with binding medium then incubated in 1 ml containing 6 mM ethylene glycol bis (succinimidylsuccinate) (EGS) at pH 7.4 for 15 minutes at 15° C. The cultures were then washed twice with cold phosphate-buffered saline and solubilised in 0.1 ml of 2× sample buffer, then immediately heated at 100° C. for 5 minutes and electrophoresed on a 10% polyacrylamide gel.
After the incubation period cultures were treated with […] EGS as described in Materials and Methods. Each value is expressed as a percentage of the level of the Mr 75000-85000 protein obtained with no additions (-). Other experimental details are as described in Materials and Methods.

[2] = test system: Swiss 3T3 cells; experiment: DNA synthesis by [^3 H]thymidine incorporation in Swiss 3T3 cells (GRP-induced mitogenesis); type: cell-based, mouse; details: for Ability to inhibit mitogenesis stimulated by GRP (relative potency): substance P antagonists tested at 50 μM
Protocol: Cell culture procedure (33), assays of DNA synthesis by ^3 H-thymidine incorporation (34) and ^125 I-GRP binding to intact cells (13) were performed as described previously.
FIG. 3. Inhibition of GRP-induced DNA synthesis by [DPro^2 ]spantide (A) and [DPhe^5 ]spantide (D). […] After 40 hours DNA synthesis was estimated by [^3 H]thymidine incorporation into acid-precipitable material. […] Each point represents the mean of duplicate determinations. […] Values are expressed as a percentage of [^3 H]thymidine incorporation obtained in the absence of antagonists (100%=8.6×10^5 cpm per dish). Each point represents the mean of 4 determinations.

[3] = biological target: T2, GRP receptor (Mus musculus, UniProt P21729); details: reference (13); cited from earlier work
T2 construct: endogenous in cells; host or cells: Swiss 3T3 cells (intact, confluent and quiescent)

[4] = test system: Swiss 3T3 cells; details: reference (13); cited from earlier work
[5] = ^125 I-GRP 0.5 nM, 15° C., 2.5 h, EGS, each addition at its own concentration

T1 sequence (P21729 whole entry): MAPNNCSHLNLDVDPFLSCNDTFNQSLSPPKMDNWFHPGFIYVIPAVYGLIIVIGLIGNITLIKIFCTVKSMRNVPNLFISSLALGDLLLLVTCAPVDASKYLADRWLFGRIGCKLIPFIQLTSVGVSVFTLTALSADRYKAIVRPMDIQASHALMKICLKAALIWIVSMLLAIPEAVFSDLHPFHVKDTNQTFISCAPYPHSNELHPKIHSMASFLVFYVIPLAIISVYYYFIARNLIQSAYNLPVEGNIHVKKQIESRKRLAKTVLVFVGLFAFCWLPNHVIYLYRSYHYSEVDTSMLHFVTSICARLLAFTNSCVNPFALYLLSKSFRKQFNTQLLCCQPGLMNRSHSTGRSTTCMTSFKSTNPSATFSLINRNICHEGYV
T2 sequence (P21729 whole entry): as above

| Compound | Mr 75000-85000 protein % of control [1, 5] | other results |
| --- | --- | --- |
| CC(C)C[C@H](NC(=O)[C@H](CC(C)C)NC(=O)[C@@H](Cc1c[nH]c2ccccc12)NC(=O)[C@H](Cc1ccccc1)NC(=O)[C@@H](Cc1c[nH]c2ccccc12)NC(=O)[C@H](CCC(N)=O)NC(=O)[C@H](CCC(N)=O)NC(=O)[C@@H]1CCCN1C(=O)[C@H](CCCCN)NC(=O)[C@H]1CCCN1C(=O)[C@H](N)CCCNC(=N)N)C(N)=O [Antagonist A, D-Arg-D-Pro-Lys-Pro-Gln-Gln-D-Trp-Phe-D-Trp-Leu-Leu-NH2] (H-[dR][dP]KPQQ[dW]F[dW]LL-NH2) | 9.7 % of control | – |
| CC(C)C[C@H](NC(=O)[C@H](CC(C)C)NC(=O)[C@@H](Cc1c[nH]c2ccccc12)NC(=O)[C@H](Cc1ccccc1)NC(=O)[C@@H](Cc1c[nH]c2ccccc12)NC(=O)[C@H](CCC(N)=O)NC(=O)[C@H](CCC(N)=O)NC(=O)[C@@H]1CCCN1C(=O)[C@H](CCCCN)NC(=O)[C@@H]1CCCN1C(=O)[C@H](N)CCCNC(=N)N)C(N)=O [B, DArgProLysProGlnGlnDTrpPheDTrpLeuLeuNH2] (H-[dR]PKPQQ[dW]F[dW]LL-NH2) | – | Antagonist activity against GRP-stimulated mitogenesis ([2]; even at 100 μM): no antagonist activity; Ability to inhibit mitogenesis stimulated by GRP (relative potency) [2]: less potent than either A or D |
| CSCC[C@H](NC(=O)[C@H](CC(C)C)NC(=O)[C@H](Cc1cnc[nH]1)NC(=O)CNC(=O)[C@@H](NC(=O)[C@H](C)NC(=O)[C@H](Cc1c[nH]c2ccccc12)NC(=O)[C@H](CCC(N)=O)NC(=O)[C@H](CC(N)=O)NC(=O)CNC(=O)[C@H](CC(C)C)NC(=O)[C@H](CCCN=C(N)N)NC(=O)[C@H](CCC(N)=O)NC(=O)[C@@H]1CCC(=O)N1)C(C)C)C(N)=O [Bombesin] | – | Mr 75000-85000 protein % of control [1]: 0.5 |
| C[C@H](N)C(=O)NCC(=O)N[C@H]1CSSC[C@@H](C(=O)O)NC(=O)[C@H](CO)NC(=O)[C@H]([C@@H](C)O)NC(=O)[C@H](Cc2ccccc2)NC(=O)[C@H]([C@@H](C)O)NC(=O)[C@H](CCCCN)NC(=O)[C@H](Cc2c[nH]c3ccccc23)NC(=O)[C@H](Cc2ccccc2)NC(=O)[C@H](Cc2ccccc2)NC(=O)[C@H](CC(N)=O)NC(=O)[C@H](CCCCN)NC1=O [Somatostatin] | 97 % of control | – |
| CSCC[C@H](NC(=O)[C@H](CC(C)C)NC(=O)CNC(=O)[C@H](Cc1ccccc1)NC(=O)[C@H](Cc1ccccc1)NC(=O)[C@H](CCC(N)=O)NC(=O)[C@H](CCC(N)=O)NC(=O)[C@@H]1CCCN1C(=O)[C@H](CCCCN)NC(=O)[C@@H]1CCCN1C(=O)[C@@H](N)CCCNC(=N)N)C(N)=O [Substance P] | 91 % of control | – |
| NC(=O)CC[C@@H]1NC(=O)[C@H](Cc2ccccc2)NC(=O)[C@H](Cc2ccc(O)cc2)NC(=O)[C@@H](N)CSSC[C@@H](C(=O)N2CCC[C@H]2C(=O)N[C@@H](CCCN=C(N)N)C(=O)NCC(N)=O)NC(=O)[C@H](CC(N)=O)NC1=O [Vasopressin] | 94 % of control | – |
| CSCC[C@H](NC(=O)[C@H](CC(C)C)NC(=O)[C@H](Cc1c[nH]cn1)NC(=O)CNC(=O)[C@@H](NC(=O)[C@H](C)NC(=O)[C@H](Cc1c[nH]c2ccccc12)NC(=O)[C@H](Cc1c[nH]cn1)NC(=O)[C@H](CC(N)=O)NC(=O)CNC(=O)[C@H](CCCNC(=N)N)NC(=O)[C@@H]1CCCN1C(=O)[C@H](Cc1ccc(O)c(I)c1)NC(=O)[C@H](CCSC)NC(=O)[C@H](CCCCN)NC(=O)[C@H](C)NC(=O)[C@H](CC(C)C)NC(=O)[C@@H](NC(=O)[C@@H](NC(=O)CNC(=O)CNC(=O)CNC(=O)[C@@H](NC(=O)[C@H](CO)NC(=O)[C@@H](NC(=O)[C@@H]1CCCN1C(=O)[C@H](C)N)C(C)C)C(C)C)[C@@H](C)O)C(C)C)C(C)C)C(N)=O [^125 I-GRP] (H-APVSVGGGTVLAKM[Tyr(3-I)]PRGNHWAVGHLM-NH2; N-terminus and C-terminus assumed) | – | Kd ([1]; 15° C., 2.5 h, EGS 6 mM, read-out: Kd from double-reciprocal plot of cross-linking of ^125 I-GRP to the Mr 75000-85000 band): 1 nM |
| EGF: epidermal growth factor | 94 % of control | – |
| GRP (1-16): the 1-16 amino acid (amino-terminal) fragment of GRP (VPLPAGGGTVLTKMYP; Gastrin-releasing peptide; UniProt P07492 24-39, looked up, fragment) | 93 % of control | Inhibition of ^125 I-GRP binding [3]: neither inhibits ^125 I-GRP binding; Stimulation of DNA synthesis [4]: nor stimulates DNA synthesis |
| GRP (14-27): the 14-27 amino acid fragment of GRP (MYPRGNHWAVGHLM; ends and bridges not checked; UniProt P07492 37-50, looked up, fragment) | 0.4 % of control | – |
| HArgGlyGlnDTrpPheGlyAsp(OtBu)2 [J] | – | Ability to inhibit mitogenesis stimulated by GRP (relative potency) [2]: less potent than either A or D |
| Insulin: mitogen for Swiss 3T3 cells | 90 % of control | – |
| Litorin | 2 % of control | – |
| PDGF | 99 % of control | – |
| Substance K: neuropeptide | 94 % of control | – |
